Starred links: 1 amine or outer side, 2 acyl side, 3 side chain; linkers in the order of their positions; H or OH if unused. Positions of bridges follow the written chain, without caps; N, C: chain ends. Non-standard residues stand in square brackets, D forms with d. Residues, ends and D or L forms follow the SMILES beside them. *: point of attachment. hPhe(3-Cl-4-CF3) = N[C@@H](CCc1ccc(C(F)(F)F)c(Cl)c1)C(=O)O; hPhe(3-F,4-CF3) = N[C@@H](CCc1ccc(C(F)(F)F)c(F)c1)C(=O)O; NMePhe(4-CF3) = CN[C@@H](Cc1ccc(C(F)(F)F)cc1)C(=O)O; hPhe(4-CF3) = N[C@@H](CCc1ccc(C(F)(F)F)cc1)C(=O)O; NMePhe(4-Cl) = CN[C@@H](Cc1ccc(Cl)cc1)C(=O)O; NMeNle(6-CHF2) = CN[C@@H](CCCCC(F)F)C(=O)O; NMePhe(2-Cl) = CN[C@@H](Cc1ccccc1Cl)C(=O)O; NMePhe(4-F) = CN[C@@H](Cc1ccc(F)cc1)C(=O)O; NMedβ3hAla = C[C@H](CC(=O)[*:2])N(C)[*:1]; NMeGly(cPent) = CN[C@H](C(=O)O)C1CCCC1; Phe(3-I) = N[C@@H](Cc1cccc(I)c1)C(=O)O; NMeCha = CN[C@@H](CC1CCCCC1)C(=O)O; Hyp = O=C(O)[C@@H]1C[C@@H](O)CN1; NMeChg = CN[C@H](C(=O)O)C1CCCCC1; NMeF = CN[C@@H](Cc1ccccc1)C(=O)O; NMeI = CC[C@H](C)[C@H](NC)C(=O)O; αMeF = C[C@](N)(Cc1ccccc1)C(=O)O; NMeD = CN[C@@H](CC(=O)O)C(=O)O; NMeL = CN[C@@H](CC(C)C)C(=O)O; αMeL = CC(C)C[C@](C)(N)C(=O)O; Chg = N[C@H](C(=O)O)C1CCCCC1; NMeV = CN[C@H](C(=O)O)C(C)C; d(β3hA) = C[C@@H](N)CC(=O)O; NMeS = CN[C@@H](CO)C(=O)O; NMeA = CN[C@@H](C)C(=O)O; NMeAib = CNC(C)(C)C(=O)O; Piperidide = C1CCN(*)CC1; Pra = C#CC[C@H](N)C(=O)O; Pyrrolidide = C1CCN(*)C1; dNMeA = CN[C@H](C)C(=O)O; Ac5c = NC1(C(=O)O)CCCC1; Aze = O=C(O)[C@@H]1CCN1; Ac4c = NC1(C(=O)O)CCC1; CH2CMe2OH = CC(C)(O)C*; Aib = CC(C)(N)C(=O)O; Isopentyl = CC(C)CC*; Sar = CNCC(=O)O
Target: T1, Kras and SOS1 (biotin-tagged human Kras loaded with GDP, His-tagged human SOS1) (Homo sapiens, UniProt P01116, G12D)
T1 construct: made in house; host or cells: E. coli (stated for Kras only)
T1 sequence (P01116 1-188 isoform P01116-2 G12D): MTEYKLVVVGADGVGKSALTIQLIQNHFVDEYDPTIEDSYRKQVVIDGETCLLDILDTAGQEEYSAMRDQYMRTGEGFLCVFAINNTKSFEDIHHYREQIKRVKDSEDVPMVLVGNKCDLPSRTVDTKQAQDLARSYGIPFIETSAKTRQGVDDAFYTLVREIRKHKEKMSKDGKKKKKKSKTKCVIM
Experiment: Protein-protein interaction inhibition between Kras and SOS1 (KrasGl2D-SOS PPI) using AlphaScreen
Assay type: binding
Details: AlphaScreen; biotin-tagged human Kras loaded with GDP, His-tagged human SOS1; read-out: KRAS G12D-SOS PPI IC50
How it was run: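 Binding between SOS1 and Kras is detected as bead-proximity luminescence: illuminate Ni-conjugated donors (680 nm), collect 520-620 nm emission from streptavidin-conjugated acceptors; Kras carries biotin and GDP loaded after purification, SOS1 carries a His tag.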

Structure (SMILES) | IC50
CC(C)C[C@H]1C(=O)N[C@@H](C2CCCCC2)C(=O)N(C)CC(=O)N(C)CC(=O)N(C)[C@@H](CCCCC(F)F)C(=O)N(C)CC(=O)N[C@@H](CCc2ccc(C(F)(F)F)c(F)c2)C(=O)N(C)[C@@H](CC(C)C)C(=O)N[C@@](C)(Cc2ccccc2)C(=O)N(C)[C@@H](CC(C)C)C(=O)N[C@H](C(=O)N2CCCC2)CC(=O)N1C [Compound 1450] ([NMeL][Chg][Sar][Sar][NMeNle(6-CHF2)][Sar][hPhe(3-F,4-CF3)][NMeL][αMeF][NMeL]D-Pyrrolidide; lactam N-11) | 220 nM
CC[C@H](C)[C@@H]1NC(=O)[C@H](CC(C)C)N(C)C(=O)C[C@@H](C)NC(=O)[C@H](CC(C)C)N(C)C(=O)C(C)(C)NC(=O)[C@H](COCC(C)(C)O)N(C)C(=O)[C@H](CCc2ccc(C(F)(F)F)c(Cl)c2)NC(=O)CN(C)C(=O)[C@H](COCCC(C)C)N(C)C(=O)CN(C)C(=O)CN(C)C1=O [Compound 1546] (cyclo([Aib][NMeL][d(β3hA)][NMeL]I[Sar][Sar][NMeS](Isopentyl)[Sar][hPhe(3-Cl-4-CF3)][NMeS](CH2CMe2OH))) | 40 nM
C#CC[C@@H]1NC(=O)[C@H](Cc2cccc(I)c2)NC(=O)CN(C)C(=O)[C@H](Cc2ccc(C(F)(F)F)cc2)N(C)C(=O)[C@@H]2CCN2C(=O)CN(C)C(=O)[C@H]([C@@H](C)CC)NC(=O)[C@H](CC(C)C)N(C)C(=O)C[C@@H](C(=O)N2CCCCC2)N(C)C(=O)[C@H](CC(C)C)NC(=O)C(C)(C)N(C)C1=O [Compound 1425] ([NMeL]I[Sar][Aze][NMePhe(4-CF3)][Sar][Phe(3-I)][Pra][NMeAib]L[NMeD]-Piperidide; lactam N-11) | 19 nM
CCO[C@@H]1C[C@H]2C(=O)NC3(CCC3)C(=O)N(C)[C@@H](C3CCCCC3)C(=O)N(C)[C@H](C)CC(=O)N(C)[C@@H](CC(C)C)C(=O)N[C@@H]([C@@H](C)CC)C(=O)N(C)[C@@H](C)C(=O)N3CC[C@H]3C(=O)N(C)[C@@H](Cc3ccc(C(F)(F)F)cc3)C(=O)N(C)CC(=O)N[C@@H](CCc3ccc(C(F)(F)F)c(Cl)c3)C(=O)N2C1 [Compound 698] (cyclo([Ac4c][NMeChg][NMedβ3hAla][NMeL]I[NMeA][Aze][NMePhe(4-CF3)][Sar][hPhe(3-Cl-4-CF3)][Hyp](Et))) | 23 nM
CC[C@H](C)[C@@H]1NC(=O)[C@H](CC(C)C)N(C)C(=O)C[C@@H](C)NC(=O)[C@H](C(C)C)N(C)C(=O)[C@](C)(CC(C)C)NC(=O)[C@@H]2CCCN2C(=O)[C@H](CCc2ccc(C(F)(F)F)c(Cl)c2)NC(=O)CN(C)C(=O)[C@H](CC2CCCCC2)N(C)C(=O)CN(C)C(=O)CN(C)C1=O [Compound 705] (cyclo(I[Sar][Sar][NMeCha][Sar][hPhe(3-Cl-4-CF3)]P[αMeL][NMeV][d(β3hA)][NMeL])) | 360 nM
CC[C@H](C)[C@@H]1NC(=O)[C@H](C(C)C)N(C)C(=O)C[C@@H](C)NC(=O)[C@H](CC(C)C)N(C)C(=O)C2(CCCC2)NC(=O)[C@H](CC(C)C)N(C)C(=O)[C@H](CCc2ccc(C(F)(F)F)cc2)NC(=O)CN(C)C(=O)[C@H](Cc2ccc(Cl)cc2)N(C)C(=O)[C@@H]2CCN2C(=O)CN(C)C1=O [Compound 645] (cyclo([Ac5c][NMeL][d(β3hA)][NMeV]I[Sar][Aze][NMePhe(4-Cl)][Sar][hPhe(4-CF3)][NMeL])) | 58 nM
CC[C@H](C)[C@@H]1NC(=O)[C@H](C)N(C)C(=O)C[C@@H](C(=O)N2CCCC2)N(C)C(=O)[C@H](C(C)C)N(C)C(=O)C2(CCC2)NC(=O)[C@H](Cc2ccccc2Cl)N(C)C(=O)[C@H](CCc2ccc(C(F)(F)F)c(Cl)c2)NC(=O)CN(C)C(=O)[C@H](CC2CCCCC2)N(C)C(=O)CN(C)C(=O)CN(C)C1=O [Compound 906] ([NMeA]I[Sar][Sar][NMeCha][Sar][hPhe(3-Cl-4-CF3)][NMePhe(2-Cl)][Ac4c][NMeV][NMeD]-Pyrrolidide; lactam N-11) | 2.7 nM
CC[C@H](C)[C@@H]1NC(=O)[C@H](CC(C)C)N(C)C(=O)C[C@@H](C(=O)N2CCCCC2)N(C)C(=O)[C@H](C2CCCCC2)N(C)C(=O)C2(CCCC2)NC(=O)[C@H](CC(=O)O)N(C)C(=O)[C@H](CCc2ccc(C(F)(F)F)c(Cl)c2)NC(=O)CN(C)C(=O)[C@H](CC2CCCCC2)N(C)C(=O)CN(C)C(=O)CN(C)C1=O [Compound 688] ([NMeL]I[Sar][Sar][NMeCha][Sar][hPhe(3-Cl-4-CF3)][NMeD][Ac5c][NMeChg][NMeD]-Piperidide; lactam N-11) | 2.3 nM
CC[C@H](C)[C@@H]1NC(=O)[C@H](C)N(C)C(=O)C[C@@H](C)NC(=O)[C@H](C2CCCC2)N(C)C(=O)C2(CCCC2)NC(=O)[C@@H]2CCCN2C(=O)[C@H](CCc2ccc(C(F)(F)F)c(Cl)c2)NC(=O)[C@@H](C)N(C)C(=O)[C@H](Cc2ccc(F)cc2)N(C)C(=O)CN(C)C(=O)CN(C)C1=O [Compound 206] (cyclo([Ac5c][NMeGly(cPent)][d(β3hA)][NMeA]I[Sar][Sar][NMePhe(4-F)][dNMeA][hPhe(3-Cl-4-CF3)]P)) | 110 nM
CC[C@H](C)[C@@H]1NC(=O)[C@H](C)N(C)C(=O)C[C@@H](C)NC(=O)[C@H](CC(C)C)N(C)C(=O)[C@H](Cc2ccccc2)N(C)C(=O)[C@@H]2CCCN2C(=O)[C@H](CCc2ccc(C(F)(F)F)cc2)NC(=O)CN(C)C(=O)[C@H]([C@@H](C)CC)N(C)C(=O)CN(C)C(=O)CN(C)C1=O [Compound 18] (cyclo(I[Sar][Sar][NMeI][Sar][hPhe(4-CF3)]P[NMeF][NMeL][d(β3hA)][NMeA])) | 230 nM

Reference: patent publication US12371454B2, “Cyclic peptide compound having Kras inhibitory action” (priority 2019, dated 2025)
